# Measurements from US12479820B2, “Pyridin-3-yl derivatives” (Idorsia Pharmaceuticals Ltd, priority 2019, dated 2025).
# Molecular target: T1, human LPA1 receptor (Homo sapiens, UniProt Q92633)
# T1 construct: TEV protease site; Gal4-VP16 transcription factor; host or cells: Tango EDG2-bla U2OS cells
# Experiment: Beta-arrestin recruitment assay to determine IC50 values for human LPAR1
# Format: cell-based
# Details: Tango EDG2-bla U2OS cells, antagonist assay, LPA 18:1 500 nM final
# From the text: Beta-Arrestin Recruitment Assay to Determine IC50 Values for Human LPAR1
# The Tango™ EDG2-bla U2OS cells are obtained from Invitrogen. These cells contain the human LPA1 receptor cDNA linked to a TEV protease site and a Gal4-VP16 transcription factor integrated into the Tango™ GPCR-bla U2OS parental cell line. This parental cell line stably expresses a beta-arrestin/TEV protease fusion protein and the beta-lactamase (bla) reporter gene under the control of a UAS response element. Upon LPA (agonist) binding, LPA1 receptor gets activated, leading to arrestin-protease recruitment and proteolytic release of the transcription factor: The transcription factor then regulates transcription of a beta-lactamase reporter construct, which is measured upon addition of the live-cell substrate.
# 10′000 Tango™ EDG2-bla U2OS cells are seeded in a 384-well black with clear bottom plate in 30 μl Freestyle 293 Expression Medium (Invitrogen) and incubated for 20 h at 37° C., 5% CO2. For antagonist assays, 5 μl of test compound (dilution series in DMSO/Freestyle 293 Expression medium/0.1% fatty acid free BSA (Sigma)) or buffer control are added per well and incubated for 30 min at 37° C., 5% CO2. 5 μl of LPA 18:1 (500 nM final) (solution in Freestyle 293 Expression medium/0.1% fatty acid free BSA (Sigma)) are added per well and the plate incubated for 16 h at 37° C., 5% CO2. Cells are then loaded with LiveBLAzer-FRET™ B/G Substrate (Invitrogen) for 2 h in the dark and the fluorescence emission at 460 nm and 530 nm is measured using the SynergyMx reader (BioTek). Following the background subtraction from both channels, the 460/530 nm emission ratio for each well is calculated, then plotted and fitted to a 4-parameter logistic function to obtain IC50 values. IC50 is the concentration of antagonist inhibiting 50% of the maximal response.
# T1 sequence (Q92633 whole entry, the tested form may be a part): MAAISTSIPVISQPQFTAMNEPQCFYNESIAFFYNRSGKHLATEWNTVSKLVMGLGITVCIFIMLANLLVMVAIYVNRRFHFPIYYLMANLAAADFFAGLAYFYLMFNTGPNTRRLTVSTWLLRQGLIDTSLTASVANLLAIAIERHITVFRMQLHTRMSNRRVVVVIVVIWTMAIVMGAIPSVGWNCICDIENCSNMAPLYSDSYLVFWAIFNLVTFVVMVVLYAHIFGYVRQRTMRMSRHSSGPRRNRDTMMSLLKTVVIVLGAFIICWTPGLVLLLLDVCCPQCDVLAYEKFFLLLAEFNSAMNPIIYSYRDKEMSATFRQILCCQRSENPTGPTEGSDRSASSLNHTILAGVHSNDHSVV
row,SMILES,IC50
1,"COc1cc(Cl)ncc1NC(=O)C1(c2ccccc2C(C)C)CN(C(=O)Cc2cc(O)n[nH]2)C1 [Example 19-13, N-(6-chloro-4-methoxypyridin-3-yl)-1-(2-(3-hydroxy-1H-pyrazol-5-yl)acetyl)-3-(2-isopropylphenyl)azetidine-3-carboxamide]",112 nM
2,"COc1cc(Cl)ncc1NC(=O)C1(c2c(F)cccc2C(C)C)CNC1 [Example 13, N-(6-chloro-4-methoxypyridin-3-yl)-3-(2-fluoro-6-isopropylphenyl)azetidine-3-carboxamide]",3 nM
3,"COc1cc(Cl)ncc1NC(=O)C1(c2ccccc2C(C)C)CN(C(=O)CCO)C1 [Example 19-1, N-(6-chloro-4-methoxypyridin-3-yl)-1-(3-hydroxypropanoyl)-3-(2-isopropylphenyl)azetidine-3-carboxamide]",127 nM
4,"COc1cc(Cl)ncc1NC(=O)C1(c2ccccc2C(C)C)CN(C(=O)c2noc(O)n2)C1 [Example 19-6, N-(6-chloro-4-methoxypyridin-3-yl)-1-(5-hydroxy-1,2,4-oxadiazole-3-carbonyl)-3-(2-isopropylphenyl)azetidine-3-carboxamide]",61 nM
5,"COc1cc(Cl)ncc1NC(=O)C1(c2ccccc2C(C)C)CNC1 [Example 3, N-(6-chloro-4-methoxypyridin-3-yl)-3-(2-isopropylphenyl)azetidine-3-carboxamide]",4 nM
6,"COC(=O)C(C)(C)CCN1CCC(C(=O)Nc2cnc(Cl)cc2OC)(c2ccccc2C(C)C)CC1 [Example 18-21, methyl 4-(4-((6-chloro-4-methoxypyridin-3-yl)carbamoyl)-4-(2-isopropylphenyl)piperidin-1-yl)-2,2-dimethylbutanoate]",19 nM
7,"COc1cc(Br)ncc1NC(=O)C1(c2ccccc2C(C)C)CN(C(=O)CC(C)(C)C(=O)O)C1 [Example 19-19, 4-(3-((6-bromo-4-methoxypyridin-3-yl)carbamoyl)-3-(2-isopropylphenyl)azetidin-1-yl)-2,2-dimethyl-4-oxobutanoic acid]",21 nM
8,"COc1cc(Cl)ncc1NC(=O)C1(c2ccccc2C(C)C)CN(C(=O)CNS(N)(=O)=O)C1 [Example 19-14, N-(6-chloro-4-methoxypyridin-3-yl)-3-(2-isopropylphenyl)-1-(sulfamoylglycyl)azetidine-3-carboxamide]",67 nM
9,"COc1cc(Cl)ncc1NC(=O)C1(c2ccccc2C(C)C)CN(C(=O)Cn2cc(C)nn2)C1 [Example 19-8, N-(6-chloro-4-methoxypyridin-3-yl)-3-(2-isopropylphenyl)-1-(2-(4-methyl-1H-1,2,3-triazol-1-yl)acetyl)azetidine-3-carboxamide]",43 nM
10,"CCOC(=O)C(C)(C)CCCN1CC(C(=O)Nc2cnc(Cl)cc2OCC)(c2ccccc2C(C)C)C1 [Example 18-26, ethyl 5-(3-((6-chloro-4-ethoxypyridin-3-yl)carbamoyl)-3-(2-isopropylphenyl)azetidin-1-yl)-2,2-dimethylpentanoate]",72 nM
11,"COc1cc(Cl)ncc1NC(=O)C1(c2ccccc2C(C)C)CN(CCO)C1 [Example 18-3, N-(6-chloro-4-methoxypyridin-3-yl)-1-(2-hydroxyethyl)-3-(2-isopropylphenyl)azetidine-3-carboxamide]",37 nM
12,"CC(C)Oc1cc(Cl)ncc1NC(=O)C1(c2ccccc2C(C)C)CNC1 [Example 6, N-(6-chloro-4-isopropoxypyridin-3-yl)-3-(2-isopropylphenyl)azetidine-3-carboxamide]",3 nM
13,"COc1cc(Cl)ncc1NC(=O)C1(c2ncccc2C(C)C)CNC1 [Example 15, N-(6-chloro-4-methoxypyridin-3-yl)-3-(3-isopropylpyridin-2-yl)azetidine-3-carboxamide]",196 nM
14,"COc1cc(Cl)ncc1NC(=O)C1(c2ccccc2C(C)C)CN(C(=O)c2cc(O)no2)C1 [Example 19-5, N-(6-chloro-4-methoxypyridin-3-yl)-1-(3-hydroxyisoxazole-5-carbonyl)-3-(2-isopropylphenyl)azetidine-3-carboxamide]",270 nM
15,"COc1cc(Cl)ncc1NC(=O)C1(c2ccccc2C(C)C)CN(Cc2cn[nH]c2)C1 [Example 18-14, 1-((1H-pyrazol-4-yl)methyl)-N-(6-chloro-4-methoxypyridin-3-yl)-3-(2-isopropylphenyl)azetidine-3-carboxamide]",74 nM
16,"COc1cc(Cl)ncc1NC(=O)C1(c2ccccc2C(C)C)CN(S(=O)(=O)CCN(C)C)C1 [Example 20-4, N-(6-chloro-4-methoxypyridin-3-yl)-1-((2-(dimethylamino)ethyl)sulfonyl)-3-(2-isopropylphenyl)azetidine-3-carboxamide]",472 nM
17,"COc1cc(Cl)ncc1NC(=O)C1(c2ccccc2C(C)C)CN(C(=O)CS(C)(=O)=O)C1 [Example 19-16, N-(6-chloro-4-methoxypyridin-3-yl)-3-(2-isopropylphenyl)-1-(2-(methylsulfonyl)acetyl)azetidine-3-carboxamide]",54 nM
18,"COc1cc(F)ncc1NC(=O)C1(c2ccccc2C(C)C)CN(C(=O)CC(C)(C)C(=O)O)C1 [Example 19-23, 4-(3-((6-fluoro-4-methoxypyridin-3-yl)carbamoyl)-3-(2-isopropylphenyl)azetidin-1-yl)-2,2-dimethyl-4-oxobutanoic acid]",100 nM
19,"COc1cc(Cl)ncc1NC(=O)C1(c2ccccc2C(C)C)CN(C(=O)Cc2c[nH]nc2O)C1 [Example 19-12, N-(6-chloro-4-methoxypyridin-3-yl)-1-(2-(3-hydroxy-1H-pyrazol-4-yl)acetyl)-3-(2-isopropylphenyl)azetidine-3-carboxamide]",24 nM

# More lines, now with the values ahead:
row,IC50,SMILES
1,2 nM,"COc1cc(Cl)ncc1NC(=O)C1(c2ccccc2C(C)C)CN(c2ccncc2F)C1 [Example 24-2, N-(6-chloro-4-methoxypyridin-3-yl)-1-(3-fluoropyridin-4-yl)-3-(2-isopropylphenyl)azetidine-3-carboxamide]"
2,15 nM,"CCOC(=O)c1coc(N2CC(C(=O)Nc3cnc(Cl)cc3OC)(c3ccccc3C(C)C)C2)n1 [Example 24-25, ethyl 2-(3-((6-chloro-4-methoxypyridin-3-yl)carbamoyl)-3-(2-isopropylphenyl)azetidin-1-yl)oxazole-4-carboxylate]"
3,3 nM,"COC[C@H](C)Oc1cc(Cl)ncc1NC(=O)C1(c2ccccc2C(C)C)CN(S(N)(=O)=O)C1 [Example 21-7, (S)-N-(6-chloro-4-((1-methoxypropan-2-yl)oxy)pyridin-3-yl)-3-(2-isopropylphenyl)-1-sulfamoylazetidine-3-carboxamide]"
4,37 nM,"COc1cc(C)ncc1NC(=O)C1(c2ccccc2C(C)C)CN(S(N)(=O)=O)C1 [Example 21-10, 3-(2-isopropylphenyl)-N-(4-methoxy-6-methylpyridin-3-yl)-1-sulfamoylazetidine-3-carboxamide]"
5,12 nM,"COC(=O)c1ccc(N2CC(C(=O)Nc3cnc(Cl)cc3OC)(c3ccccc3C(C)C)C2)nc1 [Example 24-21, methyl 6-(3-((6-chloro-4-methoxypyridin-3-yl)carbamoyl)-3-(2-isopropylphenyl)azetidin-1-yl)nicotinate]"
6,3150 nM,"COc1cc(Cl)ncc1NC(=O)C1(c2ccccc2C(C)C)CN(c2ncc(C(=O)O)cn2)C1 [Example 24-23, 2-(3-((6-chloro-4-methoxypyridin-3-yl)carbamoyl)-3-(2-isopropylphenyl)azetidin-1-yl)pyrimidine-5-carboxylic acid]"
7,24 nM,"COC(=O)c1ccc(N2CC(C(=O)Nc3cnc(Cl)cc3OC)(c3ccccc3C(C)C)C2)nn1 [Example 24-24, methyl 6-(3-((6-chloro-4-methoxypyridin-3-yl)carbamoyl)-3-(2-isopropylphenyl)azetidin-1-yl)pyridazine-3-carboxylate]"
8,3 nM,"COc1cc(Cl)ncc1NC(=O)C1(c2ccccc2C(C)C)CN(c2ccnc(C)c2)C1 [Example 24-5, N-(6-chloro-4-methoxypyridin-3-yl)-3-(2-isopropylphenyl)-1-(2-methylpyridin-4-yl)azetidine-3-carboxamide]"
9,19 nM,"CNS(=O)(=O)N1CC(C(=O)Nc2cnc(Cl)cc2OC)(c2ccccc2C(C)C)C1 [Example 21-12, N-(6-chloro-4-methoxypyridin-3-yl)-3-(2-isopropylphenyl)-1-(N-methylsulfamoyl)azetidine-3-carboxamide]"
10,431 nM,"COc1cc(Cl)ncc1NC(=O)C1(c2ccccc2C(C)C)CN(C(=O)NCC(=O)O)C1 [Example 22-12, (3-((6-chloro-4-methoxypyridin-3-yl)carbamoyl)-3-(2-isopropylphenyl)azetidine-1-carbonyl)glycine]"
11,7 nM,"CCOC(=O)CCNC(=O)N1CC(C(=O)Nc2cnc(Cl)cc2OC)(c2ccccc2C(C)C)C1 [Example 22-13, ethyl 3-(3-((6-chloro-4-methoxypyridin-3-yl)carbamoyl)-3-(2-isopropylphenyl)azetidine-1-carboxamido)propanoate]"
